Laboratory results taken from the supplement of paper PMC10307832.

How the values were obtained:
Test in all cases: relative viability (nuclei count vs DMSO), 5 days (fraction); higher = more cells survive
XMD13-2 + AZD7762 = compound: C1CC1C(=O)NC2=NNC3=C2C=CC(=C3)C4=CC(=CC=C4)C(=O)NC5CC5 [XMD13-2] + NC(=O)Nc1cc(-c2cccc(F)c2)sc1C(=O)N[C@H]1CCCNC1 [AZD7762] (partner 0.2 µM)
In short: (§1)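 Values are medians from duplicate plates. Each reflects relative viability, defined as the nuclei count of treated wells over that of vehicle wells. Lung cancer cell lines in 1536-well plates were pin-tool dosed one day after seeding with one drug alone or with a fixed anchor-drug dose plus five library-drug doses (not always all listed) in √10 steps, then fixed, stained and imaged at 4× after 5 days.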

XMD13-2 + Vorinostat = compound: C1CC1C(=O)NC2=NNC3=C2C=CC(=C3)C4=CC(=CC=C4)C(=O)NC5CC5 [XMD13-2] + O=C(CCCCCCC(=O)Nc1ccccc1)NO [Vorinostat] (partner 1 µM)
In short: as §1

ALW-II-49-7 + Dasatinib = compound: Cc1ccc(C(=O)Nc2cccc(C(F)(F)F)c2)cc1Nc1cncc(C(N)=O)c1 [ALW-II-49-7] + Cc1nc(Nc2ncc(C(=O)Nc3c(C)cccc3Cl)s2)cc(N2CCN(CCO)CC2)n1 [Dasatinib] (partner 0.075 µM)
In short: as §1

Dasatinib + Pictilisib = compound: Cc1nc(Nc2ncc(C(=O)Nc3c(C)cccc3Cl)s2)cc(N2CCN(CCO)CC2)n1 [Dasatinib] + CS(=O)(=O)N1CCN(Cc2cc3nc(-c4cccc5[nH]ncc45)nc(N4CCOCC4)c3s2)CC1 [Pictilisib] (partner 1 µM)
In short: as §1

Cell Line	relative viability (XMD13-2 + AZD7762; first compound 0.05 µM)	relative viability (XMD13-2 + AZD7762; first compound 0.1581 µM)	relative viability (XMD13-2 + AZD7762; first compound 0.5 µM)	relative viability (XMD13-2 + AZD7762; first compound 5 µM)	relative viability (XMD13-2 + Vorinostat; first compound 0.05 µM)	relative viability (XMD13-2 + Vorinostat; first compound 0.1581 µM)	relative viability (XMD13-2 + Vorinostat; first compound 0.5 µM)	relative viability (XMD13-2 + Vorinostat; first compound 5 µM)	relative viability (ALW-II-49-7 + Dasatinib; first compound 0.08 µM)	relative viability (ALW-II-49-7 + Dasatinib; first compound 0.253 µM)	relative viability (ALW-II-49-7 + Dasatinib; first compound 0.8 µM)	relative viability (ALW-II-49-7 + Dasatinib; first compound 2.53 µM)	relative viability (ALW-II-49-7 + Dasatinib; first compound 8 µM)	relative viability (Dasatinib + Pictilisib; first compound 0.005 µM)	relative viability (Dasatinib + Pictilisib; first compound 0.01581 µM)	relative viability (Dasatinib + Pictilisib; first compound 0.05 µM)	relative viability (Dasatinib + Pictilisib; first compound 0.1581 µM)	relative viability (Dasatinib + Pictilisib; first compound 0.5 µM)	relative viability (XMD13-2 + AZD7762; first compound 1.581 µM)	relative viability (XMD13-2 + Vorinostat; first compound 1.581 µM)
PC-3 [JPC-3]	0.818	0.868	0.9	0.718	0.804	0.857	0.916	0.734	0.827	0.916	0.929	0.951	0.854	0.881	0.676	0.734	0.706	0.317	–	–
HCC-44	0.944	0.98	0.969	1.02	1.11	1.17	1.21	1.09	–	–	–	–	–	0.517	0.392	0.39	0.291	0.148	1.05	1.09
NCI-H2405	0.849	0.712	0.728	0.8	1.08	0.934	1.04	0.965	0.207	0.216	0.219	0.208	0.173	0.353	0.294	0.261	0.197	0.16	–	–
LXF-289	1.14	1.25	1.2	1.17	0.864	0.767	0.86	0.808	0.213	0.286	0.24	0.187	0.183	0.659	0.472	0.298	0.111	0.076	1.29	0.959
LOU-NH91	0.938	0.767	0.78	0.793	1.05	0.971	0.935	1.02	0.544	0.588	0.521	0.504	0.414	0.497	0.492	0.401	0.439	0.341	0.725	0.852
A549	–	–	–	–	–	–	–	–	–	–	–	–	–	0.388	0.257	0.3	0.134	0.0986	–	–
H3255	0.949	1.09	0.829	0.855	0.839	0.716	0.746	0.662	0.436	0.234	0.431	0.322	0.348	0.474	0.446	0.342	0.234	0.152	0.847	–
NCI-H1395	0.408	0.404	0.423	0.419	0.732	0.871	0.651	0.707	0.436	0.457	0.407	0.431	0.417	0.713	0.593	0.552	0.337	0.376	0.38	0.594
LC-2-ad	0.996	0.94	0.896	0.826	0.721	0.703	0.717	0.722	0.481	0.412	0.501	0.7	0.387	0.397	0.346	0.237	0.128	0.0796	0.928	0.696
NCI-H838	0.986	1.04	1.06	0.954	0.839	0.661	0.756	0.763	0.395	0.34	0.294	0.257	0.255	0.444	0.297	0.276	0.218	0.189	0.967	0.713
Calu-6	–	–	–	–	–	–	–	–	–	–	–	–	–	0.732	0.65	0.742	0.604	0.527	–	–
NCI-H1648	0.604	–	0.564	0.565	0.733	–	0.42	0.459	–	–	–	–	–	–	–	–	–	–	0.633	0.391
LCLC-97TM1	0.249	0.26	0.231	0.254	0.769	0.551	0.747	0.301	0.808	0.944	0.808	0.88	0.851	0.206	0.206	0.192	0.18	0.12	–	0.532
HCC-15	1.35	1.15	1.17	1.24	0.971	0.862	0.957	0.823	0.667	0.614	0.692	0.684	0.664	0.69	0.567	0.681	0.486	0.502	1.22	0.764
CAL-12T	0.625	0.708	0.583	0.933	0.76	0.652	0.792	1.06	0.433	0.223	0.277	0.372	0.266	0.303	0.586	0.337	0.223	0.128	0.563	0.71
NCI-H727	0.807	0.665	0.583	0.776	1.23	1.09	1.41	1.22	0.352	0.324	0.193	0.412	0.446	0.33	0.267	0.258	0.209	0.176	0.505	1.33
ABC-1	–	0.897	0.531	0.745	1.3	0.979	1.03	0.774	0.501	0.627	0.506	0.656	0.483	0.937	0.625	0.659	0.644	0.506	–	–
NCI-H2023	–	–	–	–	0.837	0.668	0.696	0.94	0.547	0.547	0.603	0.573	0.437	0.21	0.142	0.202	0.173	0.151	–	0.731
NCI-H2342	0.494	0.566	0.516	0.598	0.741	0.736	0.831	0.773	0.303	0.299	0.327	0.3	0.314	–	–	–	–	–	0.455	0.687
